Legend:
[1] = tested on: U251 Glioblastoma cell line; test: Cytotoxicity assay (MTT, 72 hours, daily administration) in U251; format: cell-based; details: Homo sapiens, U-251, read-out: % VIABILITY ± S.D.
From the text: (§1) The combinations were effective in other human tumor cell lines and we tested in glioblastoma cell line and endometrial cancer cell Additional tests include data obtained from two independent experiments, six wells for dose.

[2] = tested on: PCEM004a endometrial cancer cell line; test: Cytotoxicity assay (MTT, 72 hours, daily administration) in PCEM004a; format: cell-based; details: Homo sapiens, read-out: % VIABILITY ± S.D.
From the text: as §1

[3] = tested on: pancreatic adenocarcinoma associated genes; test: TaqMan Array gene expression in PANC-1, normalized for GAPDH; details: 24 hs, CBD 3.8, MLT 200, AKBA 7.5 micrograms/ml
Method: Total RNA from untreated or CBD, MLT, AKBA alone and in combination treated cell lines was extracted using Rneasy Mini kit (Qiagen, Milan, Italy). One microgram of total RNA from each sample was subjected to reverse transcription in a total volume of 20 μL using the High-Capacity cDNA Archive Kit (Applied Biosystem, Foster City, […], USA) according to the instructions. cDNAs were analyzed by qRT-PCR performed using an IQ5 Multicolor Real time PCR Detection system. Quantitative real-time gene expression was performed with the TaqMan® Array Human Pancreatic Adenocarcinoma 96-well Plate, containing 92 assays to pancreatic adenocarcinoma associated genes and 4 assays to candidate endogenous control genes, was purchased (Thermo Fisher, Grand Island, NY, USA) and used to evaluate the treatments in modulating PDAC-related genes (Table 1). Measurement of different housekeeping genes (GAPDH; HPRT1; GUSB) on the samples was used to normalize mRNA content. The gene expression levels of treated cell lines were expressed as relative fold compared with untreated or vehicle-treated cells.
To elucidate the molecular events induced by CBD, MLT and AKBA alone and in combination, 92 genes involved in PDAC progression and aggressiveness were evaluated by Taqman Array. Both cell lines were treated with CBD, MLT and AKBA alone and in combination, and the molecular pathways of PDAC associated gene were evaluated.
Target mRNA levels were normalized for GAPDH expression.

PANC-1 cell line = test: Cytotoxicity assay (MTT, 72 hours, daily administration) in PANC-1; details: Homo sapiens, PANC-1, read-out: % VIABILITY ± S.D.
Method: (§2) Human pancreatic ductal adenocarcinoma (PANC-1 and MIAPaCa-2) cell lines were purchased by Sigma Aldrich (Milan, Italy) and cultured in DMEM high glucose medium (EuroClone, Milan, Italy) supplemented with 10% of fetal bovine serum (FBS), 2 mM L-glutamine, 100 IU/mL penicillin, 100 mg streptomycin and 1 mM sodium pyruvate. Cell lines were maintained at 37° C. with 5% CO2 and 95% of humidity.
(§3) 3×10^4 cells/mL were seeded in 96-well plates in a final volume of 100 L/well. After one day of incubation, compounds or vehicles, alone or in combination, were added and six replicates were used for each treatment and all experiments were repeated three times. In all the experiments, the treatment was daily added, after washing with fresh medium. After 72 hours cell viability was investigated by adding 0.8 mg/mL of 3-[4,5-dimethylthiazol-2-yl]-2,5 diphenyl tetrazolium bromide (MTT) (Sigma Aldrich) to the media. After 3 h the supernatant was removed, and the pellet of salt crystals was solubilized with 100 μL/well of DMSO. The absorbance of the sample against a background control was measured at 570 nm using an ELISA reader microliter plate (BioTek Instruments, Winooski, VT, USA).
(§4) Cytotoxicity in PDAC cell lines: The effect of CBD, MLT and AKBA in reducing cell viability was evaluated at 72 hours, post daily administration, in PDAC cell lines. Cells were treated with different doses of CBD, MLT and AKBA (up to 1 mg) and percentage of cell viability was evaluated by the MTT assay. […] The compounds were administered daily for 72 hours, as in previous experiments at the desired doses. […] MTT assay was used to analyse the cell cytotoxicity.

MIAPaCa-2 cell line = test: Cytotoxicity assay (MTT, 72 hours, daily administration) in MIAPaCa-2; details: Homo sapiens, MIA PaCa-2, read-out: % VIABILITY ± S.D.
Method: as §2, §3, §4

Compound: CC(=O)O[C@@H]1CC[C@@]2(C)[C@@H](CC[C@]3(C)[C@@H]2C(=O)C=C2[C@@H]4[C@@H](C)[C@H](C)CC[C@]4(C)CC[C@]23C)[C@@]1(C)C(=O)O [AKBA, (3R,4R,4aR,6aR,6bS,8aR,11R,12S,12aR,14aR,14bS)-3-acetyloxy-4,6a,6b,8a,11,12,14b-heptamethyl-14-oxo-1,2,3,4a,5,6,7,8,9,10,11,12,12a, 14a-tetradecahydropicene-4-carboxylic acid]
- viability at 5 µg/mL ([1]; AKBA 5 micrograms/ml): 100 ± 5.3%
- viability at 7.5 µg/mL ([1]; AKBA 7.5 micrograms/ml): 100 ± 6.6%
- viability at 10 µg/mL ([1]; AKBA 10 micrograms/ml): 100 ± 2.2%
- viability at 15 µg/mL ([1]; AKBA 15 micrograms/ml): 76.4 ± 4.2%
- viability at 5 µg/mL ([2]; AKBA 5 micrograms/ml): 100 ± 7.5%
- viability at 7.5 µg/mL ([2]; AKBA 7.5 micrograms/ml): 98.4 ± 6.3%
- viability at 10 µg/mL ([2]; AKBA 10 micrograms/ml): 87.4 ± 5.8%
- viability at 15 µg/mL ([2]; AKBA 15 micrograms/ml): 60.2 ± 5.4%
- AKT3 mRNA relative expression ([3]; VEI 0.00): 0.00
- ARHGEF7 mRNA relative expression ([3]; VEI 0.00): 0.00
- BCL2 mRNA relative expression ([3]; VEI 0.00): 0.00
- CCND2 mRNA relative expression ([3]; VEI 0.00): 0.00
- CDKN2B mRNA relative expression ([3]; VEI 0.00): 0.20
- CYP2E1 mRNA relative expression ([3]; VEI 0.00): 0.00
- EGF mRNA relative expression ([3]; VEI 0.00): 0.00
- IGF1 mRNA relative expression ([3]; VEI 0.00): 0.00
- IL6 mRNA relative expression ([3]; VEI 0.00): 0.00
- KDR mRNA relative expression ([3]; VEI 0.00): 0.00
- KIT mRNA relative expression ([3]; VEI 0.00): 0.00
- MAPK3 mRNA relative expression ([3]; VEI 0.00): 0.00
- MMP1 mRNA relative expression ([3]; VEI 0.00): 0.02
- MMP3 mRNA relative expression ([3]; VEI 0.00): 0.00
- TGFA mRNA relative expression ([3]; VEI 0.00): 0.02
- TGFB2 mRNA relative expression ([3]; VEI 0.00): 0.12
- JAK2 mRNA relative expression ([3]; VEI 0.01): 0.04
- JAK3 mRNA relative expression ([3]; VEI 0.01): 0.03
- MMP7 mRNA relative expression ([3]; VEI 0.01): 0.03
- MMP9 mRNA relative expression ([3]; VEI 0.01): 0.03
- PK3CA mRNA relative expression ([3]; VEI 0.01): 0.02
- RAC2 mRNA relative expression ([3]; VEI 0.01): 0.01
- RB1 mRNA relative expression ([3]; VEI 0.01): 0.15
- TGFB3 mRNA relative expression ([3]; VEI 0.01): 0.05
- TGFBR1 mRNA relative expression ([3]; VEI 0.02): 0.07
- BRCA2 mRNA relative expression ([3]; VEI 0.03): 0.10
- CDKN2D mRNA relative expression ([3]; VEI 0.03): 0.05
- MDM2 mRNA relative expression ([3]; VEI 0.03): 0.04
- RHOB mRNA relative expression ([3]; VEI 0.03): 0.05
- CDKN2C mRNA relative expression ([3]; VEI 0.04): 0.12
- PK3R1 mRNA relative expression ([3]; VEI 0.04): 0.03
- PTGS2 mRNA relative expression ([3]; VEI 0.04): 0.08
- STATSB mRNA relative expression ([3]; VEI 0.04): 0.20
- MAPK1 mRNA relative expression ([3]; VEI 0.05): 0.60
- SMAD2 mRNA relative expression ([3]; VEI 0.05): 0.04
- CCND1 mRNA relative expression ([3]; VEI 0.06): 0.10
- MAP2K2 mRNA relative expression ([3]; VEI 0.06): 0.10
- PK3CD mRNA relative expression ([3]; VEI 0.06): 0.05
- TGFBR2 mRNA relative expression ([3]; VEI 0.06): 0.10
- VEGFA mRNA relative expression ([3]; VEI 0.06): 0.45
- VEGFB mRNA relative expression ([3]; VEI 0.06): 0.18
- CCNA2 mRNA relative expression ([3]; VEI 0.07): 0.10
- CCNE2 mRNA relative expression ([3]; VEI 0.07): 0.06
- EZF3 mRNA relative expression ([3]; VEI 0.07): 0.07
- SMAD4 mRNA relative expression ([3]; VEI 0.07): 0.09
- SOS1 mRNA relative expression ([3]; VEI 0.07): 0.10
- TGFB1 mRNA relative expression ([3]; VEI 0.07): 0.15
- MAP2K1 mRNA relative expression ([3]; VEI 0.08): 0.10
- MMP2 mRNA relative expression ([3]; VEI 0.08): 0.20
- VEGFC mRNA relative expression ([3]; VEI 0.08): 0.12
- CCNE1 mRNA relative expression ([3]; VEI 0.09): 0.10
- CDK2 mRNA relative expression ([3]; VEI 0.09): 0.10
- KRAS mRNA relative expression ([3]; VEI 0.09): 0.09
- RAC1 mRNA relative expression ([3]; VEI 0.09): 0.10
- REL mRNA relative expression ([3]; VEI 0.09): 0.08
- STAT2 mRNA relative expression ([3]; VEI 0.09): 0.11
- CDKN1B mRNA relative expression ([3]; VEI 0.10): 0.10
- CDKN2A mRNA relative expression ([3]; VEI 0.10): 0.12
- RELA mRNA relative expression ([3]; VEI 0.10): 0.10
- AKT1 mRNA relative expression ([3]; VEI 0.11): 0.20
- PK3CB mRNA relative expression ([3]; VEI 0.11): 0.16
- FIGF mRNA relative expression ([3]; VEI 0.14): 0.00
- TP53 mRNA relative expression ([3]; VEI 0.14): 0.38
- EZF4 mRNA relative expression ([3]; VEI 0.16): 0.18
- NFKB2 mRNA relative expression ([3]; VEI 0.16): 0.10
- EZF1 mRNA relative expression ([3]; VEI 0.17): 0.14
- SMAD3 mRNA relative expression ([3]; VEI 0.17): 0.20
- STAT1 mRNA relative expression ([3]; VEI 0.18): 0.31
- BRAF mRNA relative expression ([3]; VEI 0.22): 0.18
- BIRC5 mRNA relative expression ([3]; VEI 0.23): 0.22
- JAK1 mRNA relative expression ([3]; VEI 0.23): 1.10
- CDK4 mRNA relative expression ([3]; VEI 0.24): 0.25
- EGFR mRNA relative expression ([3]; VEI 0.24): 0.18
- RAF1 mRNA relative expression ([3]; VEI 0.25): 0.08
- CCNB1 mRNA relative expression ([3]; VEI 0.27): 0.20
- ERBB2 mRNA relative expression ([3]; VEI 0.27): 0.07
- SRC mRNA relative expression ([3]; VEI 0.27): 0.14
- GRB2 mRNA relative expression ([3]; VEI 0.31): 0.38
- BCL2L1 mRNA relative expression ([3]; VEI 0.35): 0.23
- HSP90AA1 mRNA relative expression ([3]; VEI 0.35): 0.22
- NFKB1 mRNA relative expression ([3]; VEI 0.35): 0.10
- RHOA mRNA relative expression ([3]; VEI 0.37): 0.30
- ELK1 mRNA relative expression ([3]; VEI 0.41): 0.11
- RELB mRNA relative expression ([3]; VEI 0.42): 0.12
- CDC42 mRNA relative expression ([3]; VEI 0.45): 0.02
- CDKN1A mRNA relative expression ([3]; VEI 0.49): 0.28
- AKT2 mRNA relative expression ([3]; VEI 0.50): 0.41
- HBEGF mRNA relative expression ([3]; VEI 0.53): 0.44
- NOTCH1 mRNA relative expression ([3]; VEI 1.03): 0.05
- STAT6 mRNA relative expression ([3]; VEI 1.38): 0.13
- STAT3 mRNA relative expression ([3]; VEI 4.45): 0.18
- viability at 5 µg/mL (PANC-1 cell line): 92.1 ± 5.3%
- viability at 7.5 µg/mL (PANC-1 cell line): 86.2 ± 6.6%
- viability at 10 µg/mL (PANC-1 cell line): 78.2 ± 5.9%
- viability at 15 µg/mL (PANC-1 cell line): 55.3 ± 4.4%
- viability at 5 µg/mL (MIAPaCa-2 cell line): 110 ± 7.3%
- viability at 7.5 µg/mL (MIAPaCa-2 cell line): 74.8 ± 6.2%
- viability at 10 µg/mL (MIAPaCa-2 cell line): 55.3 ± 4.8%
- viability at 15 µg/mL (MIAPaCa-2 cell line): 12.1 ± 0.9%

From patent publication US20240180872A1, “METHODS AND COMPOUNDS OF CANNABIDIOL, MELATONIN AND AKBA FOR TREATING PANCREATIC CANCER” (priority 2021, published 2024)
